Test results published in the NIST ThermoML archive (doi:10.1021/je049787p).

Test: xn = mol fraction of the nth substance listed
Conditions: 101.3 kPa, Liquid; for electrical conductivity: Alternating current cell with electrodes

C=CCn1cc[n+](C)c1.[Cl-] [1-allyl-3-methylimidazolium chloride] + CCO
Conditions	electrical conductivity, 293.15 K [S/m]	electrical conductivity, 303.15 K [S/m]	electrical conductivity, 313.15 K [S/m]	electrical conductivity, 323.15 K [S/m]	electrical conductivity, 333.15 K [S/m]	viscosity, 293.15 K [mPa·s]	viscosity, 303.15 K [mPa·s]	viscosity, 313.15 K [mPa·s]	viscosity, 323.15 K [mPa·s]	viscosity, 333.15 K [mPa·s]
x2 = 0	0.382	0.44	0.501	0.562	0.624	66	44.7	25.3	20.6	16.2
x2 = 0.1	0.485	0.543	0.604	0.66	0.722	54.6	44.1	24.6	20	16
x2 = 0.2	0.627	0.682	0.74	0.801	0.859	45.7	42.2	24.1	19.5	15.4
x2 = 0.3	0.703	0.759	0.818	0.876	0.935	39.1	30.9	22.6	18.7	15.1
x2 = 0.35	0.8	0.855	0.91	0.969	1.02	30.5	25.1	19.4	16	14.4
x2 = 0.45	0.884	0.943	0.999	1.06	1.11	26.4	22.1	20.1	16.7	13.1
x2 = 0.5	0.952	1.01	1.06	1.11	1.17	23.2	18.1	15.3	13.6	11.2
x2 = 0.55	1.03	1.09	1.14	1.2	1.25	20.4	16.3	14	12.5	10.1

C=CCn1cc[n+](C)c1.[Cl-] [1-allyl-3-methylimidazolium chloride] + O
Conditions	electrical conductivity, 293.15 K [S/m]	electrical conductivity, 303.15 K [S/m]	electrical conductivity, 313.15 K [S/m]	electrical conductivity, 323.15 K [S/m]	electrical conductivity, 333.15 K [S/m]	viscosity, 293.15 K [mPa·s]	viscosity, 303.15 K [mPa·s]	viscosity, 313.15 K [mPa·s]	viscosity, 323.15 K [mPa·s]	viscosity, 333.15 K [mPa·s]
x2 = 0	0.382	0.44	0.501	0.562	0.624	66	44.7	25.3	20.6	16.2
x2 = 0.3	0.817	0.874	0.93	0.985	1.04	51.3	40.7	24.1	19.6	15
x2 = 0.45	1.11	1.17	1.23	1.28	1.33	42.7	31.4	22.9	18.2	15.1
x2 = 0.59	1.36	1.42	1.47	1.53	1.58	34.4	27.5	22.7	18.3	14.9
x2 = 0.65	1.55	1.61	1.66	1.72	1.77	29.1	24.2	20.9	17.6	14.3
x2 = 0.7	1.73	1.78	1.84	1.89	1.94	26.1	22	19.5	16.4	13
x2 = 0.75	1.84	1.89	1.95	2	2.05	22.6	18.7	15.4	12.2	10.1
x2 = 0.8	1.93	1.99	2.04	2.09	2.14	19.3	15.6	12.7	11.1	9.2
